EC50 and Emax data for seven compounds are collected here from US20240343740A1, “MACROCYCLIC GLUCAGON-LIKE PEPTIDE 1 RECEPTOR AGONISTS” (Eli Lilly and Company, priority 2021, published 2024).

The target of experiment [1] is T1, human GLP-1R (Homo sapiens, UniProt P43220). In words: Human GLP-1 Receptor HEK293 cell cAMP assay, 581 fmol/mg GLP-1R expression density. More on the design: expressed in transfected cells; host or cells: HEK293 clonal cell line. Conditions: HEK293 cell line with 581 fmol/mg expression density of GLP-1R; for EC50: geometric mean, read-out: EC50 nM (SEM, n), intracellular cAMP response, relative EC50; for Emax: percent of maximal response to GLP-1(7-36)NH2, arithmetic mean, read-out: Emax % (SEM, n), intracellular cAMP response. It counts as cell-based. The gist of the method:
(§1)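 HEK293 clonal lines expressing human GLP-1R, 20-point compound curves, 30 min at 37° C in DMEM with 0.1% casein, 250 μM IBMX, 0.5% DMSO. cAMP by HTRF, converted via standard curve to % of maximal human GLP-1(7-36)NH2 response; relative EC50 and Emax from four-parameter logistic fit.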
Background: Changes in cAMP serve as a functional read-out for many G protein-coupled receptors.

Experiment [2] concerns the target T1, human GLP-1R. Nature of the experiment: Human GLP-1 Receptor HEK293 cell cAMP assay, 104 fmol/mg GLP-1R expression density. Format: cell-based. Conditions: HEK293 cell line with 104 fmol/mg expression density of GLP-1R; for EC50: geometric mean, read-out: EC50 nM (SEM, n), intracellular cAMP response, relative EC50; for Emax: percent of maximal response to GLP-1(7-36)NH2, arithmetic mean, read-out: Emax % (SEM, n), intracellular cAMP response. Also noted: expressed in transfected cells; host or cells: HEK293 clonal cell line. In outline: as §1

T1 sequence (P43220 24-463): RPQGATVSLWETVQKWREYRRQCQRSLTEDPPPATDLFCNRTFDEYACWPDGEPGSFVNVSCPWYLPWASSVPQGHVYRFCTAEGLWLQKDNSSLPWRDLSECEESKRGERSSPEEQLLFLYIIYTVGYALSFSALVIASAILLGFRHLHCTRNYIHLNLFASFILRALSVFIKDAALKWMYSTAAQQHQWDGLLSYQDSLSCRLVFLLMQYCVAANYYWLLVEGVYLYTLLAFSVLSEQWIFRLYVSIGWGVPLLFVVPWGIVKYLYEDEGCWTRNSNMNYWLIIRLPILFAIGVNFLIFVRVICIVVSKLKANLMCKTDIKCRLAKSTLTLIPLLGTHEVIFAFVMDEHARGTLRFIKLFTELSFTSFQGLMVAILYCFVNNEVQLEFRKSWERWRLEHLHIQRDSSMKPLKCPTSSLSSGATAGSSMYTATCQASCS

As to `COc1cc(C(=O)O)cc2c1nc(Cc1cc(F)c3cc1COCc1cc(C#N)ccc1COc1cccc-3n1)n2C[C@@H]1CCO1` [Example 17, (S)-2-((5^4-cyano-1^6-fluoro-3,7-dioxa-2(2,6)-pyridina-1(1,3),5(1,2)-dibenzenacyclooctaphane-1^4-yl)methyl)-4-methoxy-1-(oxetan-2-ylmethyl)-1H-benzo[d]imidazole-6-carboxylic acid], the EC50 (usually the concentration giving half of the maximal effect) at human GLP-1R [1] is 10.5 nM; at human GLP-1R [2], 38.4 nM. The Emax (in general, the greatest response seen or fitted, relative to the assay's reference) turned out to be 121% at human GLP-1R [1] and 84.6% at human GLP-1R [2].

In the case of `COCCOc1cc(C(=O)O)cc2c1nc(Cc1cc(F)c3cc1COCCc1cc(ccc1C#N)COc1cccc-3n1)n2C[C@@H]1CCO1` [Example 58, (S)-2-((5^4-Cyano-1^6-fluoro-3,8-dioxa-2(2,6)-pyridina-1,5(1,3)-dibenzenacyclononaphane-1^4-yl)methyl)-4-(2-methoxyethoxy)-1-(oxetan-2-ylmethyl)-1H-benzo[d]imidazole-6-carboxylic acid], the EC50 is 0.633 nM on human GLP-1R [1] and 1.62 nM at human GLP-1R [2]. For the same compound, the Emax at human GLP-1R [1] worked out at 109%; on human GLP-1R [2] it was 90%.

Turning to `O=C(O)c1ccc2nc(Cc3ccc4cc3OCCCc3cc(CO)ccc3COc3cccc-4n3)n(C[C@@H]3CCO3)c2c1` [Example 25, (S)-2-((5^4-(Hydroxymethyl)-3,9-dioxa-2(2,6)-pyridina-1(1,3),5(1,2)-dibenzenacyclononaphane-1^4-yl)methyl)-1-(oxetan-2-ylmethyl)-1H-benzo[d]imidazole-6-carboxylic acid], the figures for the half-maximal effective concentration (EC50) at human GLP-1R [1] and at human GLP-1R [2] were 317 nM and 703 nM, respectively. Also, the maximal response (Emax) came out at 98.3% at human GLP-1R [1] and 62.1% on human GLP-1R [2].

`Cn1ncc(-c2ccc3c(c2)CCCOc2cc(ccc2Cc2nc4ccc(C(=O)O)cc4n2C[C@@H]2CCO2)-c2cccc(n2)OC3)n1` [Example 32, (S)-2-((5^4-(2-Methyl-2H-1,2,3-triazol-4-yl)-3,9-dioxa-2(2,6)-pyridina-1(1,3),5(1,2)-dibenzenacyclononaphane-1^4-yl)methyl)-1-(oxetan-2-ylmethyl)-1H-benzo[d]imidazole-6-carboxylic acid]: the concentration giving a half-maximal response (EC50) on human GLP-1R [1] came out at 178 nM; at human GLP-1R [2], 530 nM. Moreover, the maximal response (Emax) at human GLP-1R [1] was found to be 98.9%; at human GLP-1R [2], 70.9%.

Regarding `O=C(O)c1ccc2nc(Cc3ccc4cc3OCCCc3cc(-n5ccc(=O)c(F)c5)ccc3COc3cccc-4n3)n(C[C@@H]3CCO3)c2c1` [Example 71, (S)-2-((5^4-(3-Fluoro-4-oxopyridin-1(4H)-yl)-3,9-dioxa-2(2,6)-pyridina-1(1,3),5(1,2)-dibenzenacyclononaphane-1^4-yl)methyl)-1-(oxetan-2-ylmethyl)-1H-benzo[d]imidazole-6-carboxylic acid], on human GLP-1R [1], the concentration giving a half-maximal response (EC50) is 138 nM and the Emax stood at 68.4%. In addition, on human GLP-1R [2], the EC50 worked out at 598 nM and the Emax is 52.1%.

On to `COc1ccc(-c2ccc3c(c2)CCCOc2cc(ccc2Cc2nc4ccc(C(=O)O)cc4n2C[C@@H]2CCO2)-c2cccc(n2)OC3)cn1` [Example 29, (S)-2-((5^4-(6-Methoxypyridin-3-yl)-3,9-dioxa-2(2,6)-pyridina-1(1,3),5(1,2)-dibenzenacyclononaphane-1^4-yl)methyl)-1-(oxetan-2-ylmethyl)-1H-benzo[d]imidazole-6-carboxylic acid], for which the concentration for a half-maximal effect (EC50) is 262 nM at human GLP-1R [1] and 562 nM on human GLP-1R [2]. The maximal response (Emax) at human GLP-1R [1] was found to be 92.4%; on human GLP-1R [2], 59.2%.

On to `COc1cc(C(=O)O)cc2c1nc(Cc1ccc3cc1OCCCc1cc(C#N)ccc1COc1cccc-3n1)n2C[C@@H]1CCO1` [Example 5, (S)-2-((5^4-Cyano-3,9-dioxa-2(2,6)-pyridina-1(1,3),5(1,2)-dibenzenacyclononaphane-1^4-yl)methyl)-4-methoxy-1-(oxetan-2-ylmethyl)-1H-benzo[d]imidazole-6-carboxylic acid], for which, at human GLP-1R [1], the EC50 stood at 6.58 nM and the Emax turned out to be 109%. For the same compound, at human GLP-1R [2], the 50% effective concentration (EC50) worked out at 22.3 nM and the maximal response (Emax) is 81.6%.
